Experimental data taken from EP0180581B2, “DRUG PREPARATIONS OF REDUCED TOXICITY” (THE LIPOSOME COMPANY, INC., priority 1984, dated 1985).
Read-outs that look alike come from different tables or passages of the source.

Columns and labels:
[1] = in vitro; cited from earlier work
mice = experiment: Acute toxicity of streptomycin-ligand preparations, subcutaneous (Table II); assay type: in vivo; conditions: for effectiveness in reducing the toxicity of streptomycin: ligand mixed with streptomycin (1:3 or 1:1 molar ratio), 1000 mg streptomycin per kg subcutaneously in mice
Swiss Webster mice [2] = experiment: LD50 of aminoglycoside antibiotics with and without phosphorylcholine, subcutaneous; assay type: in vivo; conditions: mg aminoglycoside antibiotic per kg body weight, survivors after 24 hours
Experimental: (§1) In order to determine the LD₅₀ of the aminoglycoside preparations a quantity of antibiotic was dissolved in 20 m| distilled water with or without phosphorylcholine to achieve a final 1:3 molar ratio of antibiotic to ligand. Then, 0.6 m| aliquots of serial dilutions of the aminoglycoside preparations were injected subcutaneously into Swiss Webster mice (ten animals per group, average weight 23 g each). After 24 hours the number of survivors in each group was determined and the LD₅₀ and 95% confidence limits for each were computed according to the Spearman-Karber Method for Quantal Data (from Finney, 1952, Statistical Method in Biological Assay, Hafner Pub. Co., New York).

C. albicans = experiment: Minimum inhibitory concentration for C. albicans; assay type: cell-based; conditions: 50% growth inhibition, overnight at 35° C
Experimental: The minimum inhibitory concentration (M.I.C.) of the amphotericin B preparations for C. albicans was determined as follows: each of the 5 preparations was serially diluted in a 96 round-bottomed well plate, using 1/2 step dilutions of drug in 50 »| Mico-broth per well and 3 wells for each dilution step. After dilutions were completed, each well received 50 »| broth containing 10³ cells of C. albicans. Plates were incubated overnight at 35° C in a humidified atmosphere.

L cells = experiment: Cloning efficiency of L cells; assay type: cell-based
Experimental: Plastic petri dishes (35 mm diameter) were seeded with 50 L-cells per dish in 2 m| MEM plus 10% fetal calf serum containing one of the amphotericin B preparations (2 dishes per amphotericin B preparation). The dishes were incubated for 10 days and the cloned cultures were stained with crystal violet as described above.

erythrocytes = experiment: Hemolytic effect on erythrocytes (released hemoglobin); assay type: cell-based
L-cells [3] = experiment: Cytotoxicity for L-cells (50% growth inhibition); conditions: 72 hours at 37°C
Swiss Webster mice [4] = experiment: Toxicity (lethality) of streptomycin administered with and without ligand, subcutaneous; assay type: in vivo; conditions: streptomycin 1000 mg/kg subcutaneously, ligand 1:3 molar ratio, mixed immediately prior to administration
[5] = LD50 of aminoglycoside antibiotics with and without phosphorylcholine, subcutaneous; assay type: in vivo; conditions: mouse, in vivo, sc, mg aminoglycoside antibiotic per kg body weight, Swiss Webster mice, survivors after 24 hours, read-out: LD₅₀
Experimental: as §1

patients = conditions: cited from earlier work
male Swiss-Webster mice = conditions: mouse, in vivo, iv, 400 mg/kg
Experimental: Six male Swiss-Webster mice weighing 27 gms each were given a single intravenous injection of 400 mg/kg PEG-cholesterol.

L-cells [6] = conditions: mouse, 72 h
[7] = AmB preparations at 25 @g amphotericin B/m| medium, 10 days

C[C@@H]1[C@H](O)[C@@H](C)/C=C/C=C/C=C/C=C/C=C/C=C/C=C/[C@H](O[C@@H]2O[C@H](C)[C@@H](O)[C@H](N)[C@@H]2O)C[C@@H]2O[C@](O)(C[C@@H](O)C[C@@H](O)[C@H](O)CC[C@@H](O)C[C@@H](O)CC(=O)O[C@H]1C)C[C@H](O)[C@H]2C(=O)O [amphotericin B]
affinity for ergosterol compared to cholesterol [1]: approximately ten times greater affinity

egg lysophosphatidylcholine
effectiveness in reducing aminoglycoside toxicity (mice; mouse, in vivo): very effective in reducing aminoglycoside toxicity

Neomycin
LD₅₀ (Swiss Webster mice [2]): 371 mg/kg

deoxycholate [DOC]
Minimum Inhibitory Concentration of Amphotericin B, C. albicans (C. albicans): 5,000+ @g/m| | Number of Clones, % of Control (L cells; [7]): 70.8% | Number of Clones, Number of Colonies (L cells; [7]): 68 | Size of Colonies, % of Control (L cells; [7]): 92% | Size of Colonies, Mean Diameter (L cells; [7]): 2.3 | OD550nm (erythrocytes; concentration 1 @g/m|, 2% erythrocytes, 37°C, 20 hours): 0.03 | OD550nm (erythrocytes; concentration 2 @g/m|, 2% erythrocytes, 37°C, 20 hours): 0.03 | OD550nm (erythrocytes; concentration 2.5 @g/m|, 2% erythrocytes, 37°C, 20 hours): 0.03 | OD550nm (erythrocytes; concentration 15 @g/m|, 2% erythrocytes, 37°C, 20 hours): 0.03 | OD550nm (erythrocytes; concentration 30 @g/m|, 2% erythrocytes, 37°C, 20 hours): 0.03 | OD550nm (erythrocytes; concentration 60 @g/m|, 2% erythrocytes, 37°C, 20 hours): 0.06 | OD550nm (erythrocytes; concentration 125 @g/m|, 2% erythrocytes, 37°C, 20 hours): 0.23 | OD550nm (erythrocytes; concentration 250 @g/m|, 2% erythrocytes, 37°C, 20 hours): 0.47 | Minimum Inhibitory Concentration of Amphotericin B, L cells (L-cells [3]): 250.0 @g/m|

NCCOP(=O)(O)O [phosphorylethanolamine]
effectiveness in reducing aminoglycoside toxicity (mice; general statement on ligands): less effective

C[N+](C)(C)CCOP(=O)([O-])OC[C@H](O)CO [glycerolphosphorylcholine]
effectiveness in reducing aminoglycoside toxicity (mice; general statement on ligands): less effective

Gentamycin
LD₅₀ (Swiss Webster mice [2]): 692 mg/kg

O=P(O)(O)O[C@H]1[C@H](OP(=O)(O)O)[C@@H](OP(=O)(O)O)[C@H](OP(=O)(O)O)[C@@H](OP(=O)(O)O)[C@H]1OP(=O)(O)O [inositol hexaphosphate]
effectiveness in reducing the toxicity of streptomycin (mice): very effective in reducing the toxicity of streptomycin

C[N+](C)(C)CCOP(=O)(O)O [phosphorylcholine]
effectiveness in reducing aminoglycoside toxicity (mice; general statement on ligands): very effective in reducing aminoglycoside toxicity | effectiveness in reducing the toxicity of streptomycin (mice): very effective in reducing the toxicity of streptomycin

[H]/N=C(/N)N[C@H]1[C@H](O)[C@@H](O)[C@H](O[C@@H]2O[C@@H](C)[C@](O)(C=O)[C@H]2O[C@@H]2O[C@@H](CO)[C@H](O)[C@@H](O)[C@@H]2NC)[C@@H](N/C(N)=N\[H])[C@@H]1O [Streptomycin, streptomycin]
Lethality No. Dead/No. Inoculated (Swiss Webster mice [4]): 7/8 | Percent Lethality (Swiss Webster mice [4]): 87.5% | LD50 at 24 h [5]: 741 mg/kg | patients manifesting some vestibular disturbance (patients; 2g daily for 60 to 120 days): ~75% | incidence of vestibular disturbance (patients; dose reduced to 1g daily): 25%

polyethylene glycol-cholesterol [PEG-Chol]
overt signs of toxicity (male Swiss-Webster mice): No overt signs of toxicity | Minimum Inhibitory Concentration of Amphotericin B, C. albicans (C. albicans): 25,000+ @g/m| | Number of Clones, Number of Colonies (L cells): 83 | Size of Colonies, Mean Diameter (L cells): 2.5 | Number of Clones, % of Control (L cells; mouse, l cells, 240 h): 86.5% | Size of Colonies, % of Control (L cells; mouse, l cells, 240 h): 100% | OD550nm (erythrocytes): 0.03 | Minimum Inhibitory Concentration of Amphotericin B, L cells (L-cells [6]): 500.0+ @g/m|
